In patent US8722849B2, “Polypeptides” (Novo Nordisk A/S, priority 2011, dated 2014):
≈ marks a conversion by molar mass, not a printed value. Read-outs that look alike come from different tables or passages of the source. Starred links: 1 amine or outer side, 2 acyl side, 3 side chain; linkers in the order of their positions; H or OH if unused. Positions of bridges follow the written chain, without caps; N, C: chain ends. Residues, ends and D or L forms follow the SMILES beside them. *: point of attachment. C20 diacid = O=C(O)CCCCCCCCCCCCCCCCCCC(=O)*; γGlu = O=C(O)[C@H](CCC(=O)[*:2])N[*:1]

Tests used:
[1] = biological target: T1, human amylin receptor (amylin 3(a) receptor: human calcitonin receptor + RAMP-3) (Homo sapiens, UniProt O60896+P30988); assay: Assay (II)a functional CRE-luciferase assay, human amylin receptor; format: cell-based; conditions: Table 2; BHK amylin 3(a)-receptor/CRE-luc cells
T1 construct: expressed in transfected cells; host or cells: BHK570
T1 sequence (P30988 25-474): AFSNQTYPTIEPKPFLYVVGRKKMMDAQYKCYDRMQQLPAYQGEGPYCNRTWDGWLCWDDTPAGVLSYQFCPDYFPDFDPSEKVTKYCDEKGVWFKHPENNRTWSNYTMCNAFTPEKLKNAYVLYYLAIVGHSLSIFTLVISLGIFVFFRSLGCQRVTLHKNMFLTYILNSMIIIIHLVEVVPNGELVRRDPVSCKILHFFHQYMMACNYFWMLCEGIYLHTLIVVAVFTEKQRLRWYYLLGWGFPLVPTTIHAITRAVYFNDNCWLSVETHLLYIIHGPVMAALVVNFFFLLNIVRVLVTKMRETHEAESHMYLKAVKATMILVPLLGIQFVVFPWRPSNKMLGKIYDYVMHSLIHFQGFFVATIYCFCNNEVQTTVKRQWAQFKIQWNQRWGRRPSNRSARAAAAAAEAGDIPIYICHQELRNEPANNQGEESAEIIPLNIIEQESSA
T1 sequence (O60896 24-148 partner): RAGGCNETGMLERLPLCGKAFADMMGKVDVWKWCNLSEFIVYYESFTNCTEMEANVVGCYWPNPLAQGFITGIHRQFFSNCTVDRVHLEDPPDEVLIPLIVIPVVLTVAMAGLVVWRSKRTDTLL

[2] = biological target: T2, human calcitonin receptor (Homo sapiens, UniProt P30988); assay: Assay (II)a functional CRE-luciferase assay, human calcitonin receptor; format: cell-based; conditions: Table 7; human calcitonin (CTa) receptor
T2 construct: expressed in transfected cells; host or cells: BHK570
T2 sequence (P30988 25-474): T1 sequence (P30988 25-474)

[3] = Assay (III) ThT fibrillation assay for physical stability; format: physicochemical; conditions: ThT fibrillation assay
Outline: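 Freshly prepared formulations, pH-adjusted, with 1 μM ThT; four or eight replicates incubated at 37 °C under 960 rpm orbital shaking. Fluorescence (ex 444/em 485 nm) read every 20 min; […]. Peptide concentration measured by RP-HPLC before and after the run.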

[4] = Assay (IV) determination of solubility; format: physicochemical
Outline: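 Solubility was profiled across pH 3.0–8.0 after 18 hours at room temperature: a ~500 nmol/ml aqueous polypeptide solution was diluted 1:1 into 100 mM glycylglycine or bistrispropane buffers. After centrifugation, HPLC gave the dissolved concentration.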

[5] = bistrispropane buffer, pH 6, pH 6.0, read-out: Solubility pH 6.0
[6] = bistrispropane buffer, pH 6.5, pH 6.5, read-out: Solubility pH 6.5
[7] = bistrispropane buffer, pH 7, pH 7.0, 18 hours at room temperature, Table 3, read-out: Solubility pH 7.0
[8] = bistrispropane buffer, pH 7, pH 7.0, read-out: Solubility pH 7.0
[9] = bistrispropane buffer, pH 7.5, pH 7.5, read-out: Solubility pH 7.5
[10] = bistrispropane buffer, pH 8, pH 8.0, read-out: Solubility pH 8.0
[11] = glycylglycine buffer, pH 3, pH 3.0, read-out: Solubility pH 3.0
[12] = glycylglycine buffer, pH 4, pH 4.0, 18 hours at room temperature, Table 2, read-out: Solubility pH 4.0
[13] = glycylglycine buffer, pH 4, pH 4.0, read-out: Solubility pH 4.0
[14] = glycylglycine buffer, pH 5, pH 5.0, read-out: Solubility pH 5.0

Row | Structure (SMILES) | EC50 [1] [nM] | EC50 [2] [nM] | ThT pH 4.0 lag time (h) [3] [h] | solubility at 18 h [4, 5] [µM] | solubility at 18 h [4, 6] [µM] | solubility at 18 h [4, 7] [µM] | solubility at 18 h [4, 8] [µM] | solubility at 18 h [4, 9] [µM] | solubility at 18 h [4, 10] [µM] | solubility at 18 h [4, 11] [µM] | solubility at 18 h [4, 12] [µM] | solubility at 18 h [4, 13] [µM] | solubility at 18 h [4, 14] [µM] | solubility at 18 h ([4]; pH 8.0, read-out: Solubility pH 8.0) [µM] | ThT pH 4.0 lag time [3] [h]
1 | CC[C@H](C)[C@H](NC(=O)[C@@H]1CCCN1C(=O)CNC(=O)[C@H](Cc1ccccc1)NC(=O)[C@H](CC(N)=O)NC(=O)[C@H](CC(N)=O)NC(=O)[C@H](CO)NC(=O)[C@H](CO)NC(=O)[C@H](Cc1c[nH]cn1)NC(=O)[C@@H](NC(=O)[C@H](CC(C)C)NC(=O)[C@H](Cc1ccccc1)NC(=O)[C@H](CCC(=O)O)NC(=O)[C@H](C)NC(=O)[C@H](CC(C)C)NC(=O)[C@H](CCCNC(=N)N)NC(=O)[C@H](CCC(N)=O)NC(=O)[C@@H](NC(=O)[C@H](C)NC(=O)[C@@H]1CSSC[C@H](NC(=O)CC[C@H](NC(=O)CCCCCCCCCCCCCCCCCCC(=O)O)C(=O)O)C(=O)N[C@@H](CC(N)=O)C(=O)N[C@@H]([C@@H](C)O)C(=O)N[C@@H](C)C(=O)N[C@@H]([C@@H](C)O)C(=O)N1)[C@@H](C)O)C(C)C)C(=O)N[C@@H](CC(C)C)C(=O)N1CCC[C@H]1C(=O)N1CCC[C@H]1C(=O)N[C@H](C(=O)N[C@@H](CC(N)=O)C(=O)N[C@H](C(=O)NCC(=O)N[C@@H](CO)C(=O)N[C@@H](CC(N)=O)C(=O)N[C@H](C(=O)N1CCC[C@H]1C(N)=O)[C@@H](C)O)C(C)C)[C@@H](C)O [Example 108, N-alpha-[(S)-4-Carboxy-4-(19-carboxynonadecanoylamino)butyryl]-[des1,Glu14,Pro37]-pramlintide] ({C20 diacid-γGlu}-CNTATCATQRLAEFLVHSSNNFGPILPPTNVGSNTP-NH2; disulfide 1-6 (inferred)) | 0.088 | 0.0735 | 2.7 | 193 (≈ 815 µg/mL) | > 200 | > 200 | > 200 | > 200 | > 200 | > 200 | > 200 | > 200 | > 200 |  | 
2 | CC[C@H](C)[C@H](NC(=O)[C@@H]1CCCN1C(=O)CNC(=O)[C@H](Cc1ccccc1)NC(=O)[C@H](CC(N)=O)NC(=O)[C@H](CC(N)=O)NC(=O)[C@H](CO)NC(=O)[C@H](CO)NC(=O)[C@H](Cc1c[nH]cn1)NC(=O)[C@@H](NC(=O)[C@H](CC(C)C)NC(=O)[C@H](Cc1ccccc1)NC(=O)[C@H](CCC(=O)O)NC(=O)[C@H](C)NC(=O)[C@H](CC(C)C)NC(=O)[C@H](CCCNC(=N)N)NC(=O)[C@H](CCC(N)=O)NC(=O)[C@@H](NC(=O)[C@H](C)NC(=O)[C@@H]1CSSC[C@H](NC(=O)[C@H](Cc2c[nH]cn2)NC(=O)CC[C@H](NC(=O)CCCCCCCCCCCCCCCCCCC(=O)O)C(=O)O)C(=O)N[C@@H](CC(N)=O)C(=O)N[C@@H]([C@@H](C)O)C(=O)N[C@@H](C)C(=O)N[C@@H]([C@@H](C)O)C(=O)N1)[C@@H](C)O)C(C)C)C(=O)N[C@@H](CC(C)C)C(=O)N1CCC[C@H]1C(=O)N1CCC[C@H]1C(=O)N[C@H](C(=O)N[C@@H](CC(N)=O)C(=O)N[C@H](C(=O)NCC(=O)N[C@@H](CO)C(=O)N[C@@H](CC(N)=O)C(=O)N[C@H](C(=O)N1CCC[C@H]1C(N)=O)[C@@H](C)O)C(C)C)[C@@H](C)O [Example 109, N-alpha-[(S)-4-Carboxy-4-(19-carboxynonadecanoylamino)butyryl]-[His1,Glu14,Pro37]-pramlintide] ({C20 diacid-γGlu}-HCNTATCATQRLAEFLVHSSNNFGPILPPTNVGSNTP-NH2; disulfide 2-7 (inferred); C-terminus assumed) | 0.0845 | 0.0725 | 6.3 | > 200 | > 200 | > 200 | > 200 | > 200 | > 200 | > 200 | > 200 | > 200 | > 200 |  | 
3 | CC[C@H](C)[C@H](NC(=O)[C@@H]1CCCN1C(=O)CNC(=O)[C@H](Cc1ccccc1)NC(=O)[C@H](CC(N)=O)NC(=O)[C@H](CO)NC(=O)[C@H](CO)NC(=O)[C@H](CO)NC(=O)[C@H](Cc1c[nH]cn1)NC(=O)[C@@H](NC(=O)[C@H](CC(C)C)NC(=O)[C@H](Cc1ccccc1)NC(=O)[C@H](CCC(=O)O)NC(=O)[C@H](C)NC(=O)[C@H](CC(C)C)NC(=O)[C@H](CCCNC(=N)N)NC(=O)[C@H](CCC(N)=O)NC(=O)[C@@H](NC(=O)[C@H](C)NC(=O)[C@@H]1CSSC[C@H](NC(=O)[C@H](Cc2c[nH]cn2)NC(=O)CC[C@H](NC(=O)CCCCCCCCCCCCCCCCCCC(=O)O)C(=O)O)C(=O)N[C@@H](CC(N)=O)C(=O)N[C@@H]([C@@H](C)O)C(=O)N[C@@H](C)C(=O)N[C@@H]([C@@H](C)O)C(=O)N1)[C@@H](C)O)C(C)C)C(=O)N[C@@H](CC(C)C)C(=O)N[C@@H](CO)C(=O)N[C@@H](CO)C(=O)N[C@H](C(=O)N[C@@H](CC(N)=O)C(=O)N[C@H](C(=O)NCC(=O)N[C@@H](CO)C(=O)N[C@@H](Cc1c[nH]cn1)C(=O)N[C@H](C(=O)N[C@@H](Cc1ccc(O)cc1)C(N)=O)[C@@H](C)O)C(C)C)[C@@H](C)O [Example 110, N-alpha-[(S)-4-Carboxy-4-(19-carboxynonadecanoylamino)butyryl]-[His1,Glu14,Ser21,Ser28,Ser29,His35]-pramlintide] ({C20 diacid-γGlu}-HCNTATCATQRLAEFLVHSSSNFGPILSSTNVGSHTY-NH2; disulfide 2-7 (inferred)) | 0.921 | 0.349 | 1.7 | 1 (≈ 4.4 µg/mL) | 1 (≈ 4.4 µg/mL) |  | 1 (≈ 4.4 µg/mL) | 1 (≈ 4.4 µg/mL) |  | > 200 | > 200 | > 200 | > 200 | 1 (≈ 4.4 µg/mL) | 
4 | CC[C@H](C)[C@H](NC(=O)[C@@H]1CCCN1C(=O)CNC(=O)[C@H](Cc1ccccc1)NC(=O)[C@H](CC(N)=O)NC(=O)[C@H](CO)NC(=O)[C@H](CO)NC(=O)[C@H](CO)NC(=O)[C@H](Cc1c[nH]cn1)NC(=O)[C@H](CCCNC(=N)N)NC(=O)[C@H](CC(C)C)NC(=O)[C@H](Cc1ccccc1)NC(=O)[C@H](CCC(=O)O)NC(=O)[C@H](C)NC(=O)[C@H](CC(C)C)NC(=O)[C@H](CCCNC(=N)N)NC(=O)[C@H](CCC(N)=O)NC(=O)[C@@H](NC(=O)[C@H](C)NC(=O)[C@@H]1CSSC[C@H](NC(=O)[C@H](Cc2c[nH]cn2)NC(=O)CC[C@H](NC(=O)CCCCCCCCCCCCCCCCCCC(=O)O)C(=O)O)C(=O)N[C@@H](CC(N)=O)C(=O)N[C@@H]([C@@H](C)O)C(=O)N[C@@H](C)C(=O)N[C@@H]([C@@H](C)O)C(=O)N1)[C@@H](C)O)C(=O)N[C@@H](CC(C)C)C(=O)N[C@@H](CO)C(=O)N[C@@H](CO)C(=O)N[C@H](C(=O)N[C@@H](CC(N)=O)C(=O)N[C@H](C(=O)NCC(=O)N[C@@H](CO)C(=O)N[C@@H](Cc1c[nH]cn1)C(=O)N[C@H](C(=O)N[C@@H](Cc1ccc(O)cc1)C(N)=O)[C@@H](C)O)C(C)C)[C@@H](C)O [Example 111, N-alpha-[(S)-4-Carboxy-4-(19-carboxynonadecanoylamino)butyryl]-[His1,Glu14,Arg17,Ser21,Ser28,Ser29,His35]-pramlintide] ({C20 diacid-γGlu}-HCNTATCATQRLAEFLRHSSSNFGPILSSTNVGSHTY-NH2; disulfide 2-7 (inferred)) | 0.394 | 0.57 | >45 | 2 (≈ 8.92 µg/mL) | 1 (≈ 4.46 µg/mL) |  | 1 (≈ 4.46 µg/mL) | 1 (≈ 4.46 µg/mL) | 3 (≈ 13.4 µg/mL) | > 200 | > 200 | > 200 | > 200 |  | >45
